Calls of active or inactive are those of the source. No cut-off for these calls is given here.
How the values were obtained:
[1] = tested on: Protein cereblon/GTPase KRas (Homo sapiens), P01116+Q96SW2 [G12D]; test: PROTAC activity at CRBN/KRAS G12D mutant in human ASPC1 cells assessed as induction of KRAS G12D mutant degradation at 5 nM measured after 24 hrs by immunoblot analysis relative to control; type: cell-based
[2] = tested on: Protein cereblon/GTPase KRas (Homo sapiens), P01116+Q96SW2 [G12D]; test: PROTAC activity at CRBN/KRAS G12D mutant in human ASPC1 cells assessed as induction of KRAS G12D mutant degradation 0.01 to 100 nM measured after 24 hrs by immunoblot analysis relative to control; type: cell-based; details: dose 0.01-100 nM
PK-59 = test: PROTAC activity at CRBN/KRAS G12D mutant in human PK-59 cells assessed as induction of KRAS G12D mutant degradation 0.01 to 100 nM measured after 24 hrs by immunoblot analysis; type: cell-based; details: dose 0.01-100 nM
[3] = Inhibition of ERK phosphorylation in human ASPC1 cells harbouring KRAS G12D mutant measured after 24 hrs; type: cell-based; details: ASPC1, 24 h
[4] = target: Protein cereblon/GTPase KRas (Homo sapiens) (UniProt P01116+Q96SW2); test: PROTAC activity at CRBN/KRAS in human MKN-1 cells assessed as induction of KRAS degradation 1 nM measured after 24 hrs by immunoblot analysis; type: cell-based
[5] = target: Protein cereblon/GTPase NRas (Homo sapiens) (UniProt P01111+Q96SW2); test: PROTAC activity at CRBN/NRAS in human MKN-1 cells assessed as induction of […] 0.061 to 1000 nM measured after 24 hrs by immunoblot analysis; type: cell-based; details: dose 0.061-1000 nM
ASPC1 = test: Potency index , ratio of MRTX1133 IC50 to test compound IC50 for antiproliferative activity against human ASPC1 cells assessed as inhibition of cell growth measured after 72 hrs by Cell titer glo method; type: functional
PSN1 = test: Antiproliferative activity against human PSN1 cells harbouring KRAS G12R mutant assessed as inhibition of cell growth measured after 72 hrs by Cell titer glo method; type: functional, cell-based
HPAC = test: Antiproliferative activity against human HPAC cells harbouring KRAS G12D mutant assessed as inhibition of cell growth measured after 72 hrs by Cell titer glo method; type: functional, cell-based
[6] = tested on: Protein cereblon/GTPase KRas (Homo sapiens), P01116+Q96SW2 [G12D]; test: PROTAC activity at CRBN/KRAS G12D mutant in human ASPC1 cells assessed as induction of KRAS G12D mutant degradation at 5 nM preincubated with MG132 followed by compound addition and measured after 24 hrs by Western blot analysis; type: cell-based
[7] = Antitumor activity against human PK-59 cells xenografted in female Balb/c nude mouse model assessed as tumor growth inhibition at 0.1 mg/kg, iv QW measured after 28 days relative to control; type: functional; details: PK-59, 672 h, time 28 day, read-out: TGI
[8] = Antitumor activity against human PK-59 cells xenografted in female Balb/c nude mouse model assessed as tumor growth inhibition at 3 mg/kg, iv QW measured after 28 days relative to control; type: functional; details: PK-59, 672 h, time 28 day, read-out: TGI
[9] = Antitumor activity against human GP2d cells xenografted in female Balb/c nude mouse model assessed as tumor growth inhibition at 3 mg/kg, iv QW measured after 28 days relative to control; type: functional; details: 672 h, time 28 day, read-out: TGI
[10] = Antitumor activity against human GP2d cells xenografted in female Balb/c nude mouse model assessed as tumor growth inhibition at 10 mg/kg, iv QW administered […] and measured after 28 days relative to control; type: functional; details: 672 h, time 28 day, read-out: TGI
[11] = Toxicity in female Balb/c nude mouse xenografted with human GP2d cells assessed as drug tolerance at 1 to 10 mg/kg, iv QW measured after 28 days; type: organism-based; details: in vivo, 672 h, dose 1-10 mg/kg, time 28 day
SNU-407 = test: Antitumor activity against human SNU-407 cells harbouring KRAS G12D mutant xenografted in female Balb/c nude mouse model assessed as tumor regression at 1 to 10 mg/kg, iv QW administered weekly and measured after 28 days; type: functional, organism-based; details: dose 1-10 mg/kg, time 28.0 day
[12] = Antitumor activity against human Panc 04.03 cells harbouring KRAS G12D mutant xenografted in female Balb/c nude mouse model assessed as tumor regression at 1 to 10 mg/kg, iv QW administered weekly and measured after 28 days relative to control; type: functional; details: dose 1-10 mg/kg, time 28 day
[13] = tested on: Protein cereblon/GTPase KRas (Homo sapiens), P01116+Q96SW2 [G12D]; test: In vivo PROTAC activity at CRBN/KRAS G12D mutant in male Balb/c nude mouse xenografted with human PK-59 cells assessed as reduction in DUSP4 level in tumor at 10 mg/kg, iv measured up to 168 hrs relative to control; type: functional, organism-based; parameters: scale not given: the % may be the effect or the level left
[14] = tested on: Protein cereblon/GTPase KRas (Homo sapiens), P01116+Q96SW2 [G12D]; test: In vivo PROTAC activity at CRBN/KRAS G12D mutant in male Balb/c nude mouse xenografted with human GP2d cells assessed as inhibition of ERK phosphorylation level at 10 mg/kg, iv measured after 7 days; type: functional, organism-based; details: time 7.0 day
[15] = tested on: Protein cereblon/GTPase KRas (Homo sapiens), P01116+Q96SW2 [G12D]; test: In vivo PROTAC activity at CRBN/KRAS G12D mutant in male Balb/c nude mouse xenografted with human GP2d cells assessed as increase in cleaved caspase 7 level at 10 mg/kg, iv measured after 7 days; type: functional, organism-based; details: time 7.0 day
[16] = Drug concentration in male Balb/c nude mouse tumor xenografted with human PK-59 cells at 10 mg/kg, iv administered as single dose measured after 168 hrs by LC-MS/MS analysis; type: ADME, organism-based, Neoplasm; details: read-out: Ct
[17] = Stability in mouse plasma assessed as half life at 1 uM measured up to 120 mins by LC-MS/MS analysis; type: ADME, cell-free
[18] = Metabolic stability in dog liver microsomes assessed as half life at 1 uM preincubated for 3 mins with NADPH and measured up to 60 mins by LC-MS/MS analysis; type: ADME, Canis lupus familiaris, Microsome; details: time < 63 min
[19] = Metabolic stability in human liver microsomes assessed as half life at 1 uM preincubated for 3 mins with NADPH and measured up to 60 mins by LC-MS/MS analysis; type: ADME, Microsome; details: time < 63 min
[20] = Metabolic stability in mouse liver microsomes assessed as intrinsic clearance at 1 uM preincubated for 3 mins with NADPH and measured up to 60 mins by LC-MS/MS analysis; type: ADME, Microsome; details: time < 63 min, read-out: CLH
[21] = Metabolic stability in human liver microsomes assessed as intrinsic clearance at 1 uM preincubated for 3 mins with NADPH and measured up to 60 mins by LC-MS/MS analysis; type: ADME, Microsome; details: time < 63 min, read-out: CLH
[22] = Stability in human hepatocyte assessed as half life at 100 uM measured up to 120 mins by LC-MS/MS analysis; type: ADME, cell-based; details: hepatocytes
[23] = AUC (0 to t) in male Beagle dog at 1 mg/kg, iv measured up to 24 hrs by LC-MS/MS analysis; type: ADME, organism-based, Canis lupus familiaris; details: in vivo
[24] = Volume of distribution at steady state in male Beagle dog at 1 mg/kg, iv measured up to 24 hrs by LC-MS/MS analysis; type: ADME, organism-based, Canis lupus familiaris; details: in vivo, read-out: Vdss
[25] = Volume of distribution at steady state in male cynomolgus monkey at 1 mg/kg, iv measured up to 24 hrs by LC-MS/MS analysis; type: ADME, organism-based, Macaca fascicularis; details: in vivo, read-out: Vdss
[26] = Half life in male ICR mouse plasma at 10 mg/kg, iv measured after 72 hrs by LC-MS/MS analysis; type: ADME, organism-based

Sequence of Protein cereblon/GTPase KRas (Homo sapiens), P01116+Q96SW2 [G12D] (P01116 whole entry G12D): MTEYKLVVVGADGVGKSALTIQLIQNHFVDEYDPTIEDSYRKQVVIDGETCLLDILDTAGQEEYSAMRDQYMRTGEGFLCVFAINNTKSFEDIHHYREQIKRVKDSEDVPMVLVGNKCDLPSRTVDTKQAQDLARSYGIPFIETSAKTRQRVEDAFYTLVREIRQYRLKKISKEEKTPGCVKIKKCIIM
Sequence of Protein cereblon/GTPase KRas (Homo sapiens), P01116+Q96SW2 [G12D] (Q96SW2 whole entry partner): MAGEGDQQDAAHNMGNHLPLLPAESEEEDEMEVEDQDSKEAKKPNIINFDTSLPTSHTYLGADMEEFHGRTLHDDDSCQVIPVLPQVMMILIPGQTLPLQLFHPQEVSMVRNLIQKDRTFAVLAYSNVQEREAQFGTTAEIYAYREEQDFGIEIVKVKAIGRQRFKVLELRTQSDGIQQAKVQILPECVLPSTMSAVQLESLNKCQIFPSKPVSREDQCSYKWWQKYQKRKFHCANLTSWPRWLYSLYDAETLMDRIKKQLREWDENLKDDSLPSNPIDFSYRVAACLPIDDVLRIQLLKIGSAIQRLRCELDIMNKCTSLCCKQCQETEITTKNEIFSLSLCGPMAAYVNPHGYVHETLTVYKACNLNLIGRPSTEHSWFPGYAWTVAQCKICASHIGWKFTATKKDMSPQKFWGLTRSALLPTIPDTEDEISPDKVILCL
Sequence of Protein cereblon/GTPase KRas (Homo sapiens) (P01116 whole entry, looked up): as the sequence (P01116 whole entry G12D) above, with D12G counted along it
Sequence of Protein cereblon/GTPase KRas (Homo sapiens) (Q96SW2 whole entry, looked up): as the sequence (Q96SW2 whole entry partner) above
Sequence of Protein cereblon/GTPase NRas (Homo sapiens) (P01111 whole entry, looked up): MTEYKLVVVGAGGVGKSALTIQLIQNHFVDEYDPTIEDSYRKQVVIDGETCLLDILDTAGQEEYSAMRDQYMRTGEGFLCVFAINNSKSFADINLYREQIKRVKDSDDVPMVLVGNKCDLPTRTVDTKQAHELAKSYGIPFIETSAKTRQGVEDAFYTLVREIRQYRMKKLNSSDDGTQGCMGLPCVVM
Sequence of Protein cereblon/GTPase NRas (Homo sapiens) (Q96SW2 whole entry, looked up): as the sequence (Q96SW2 whole entry partner) above

Question: With C#Cc1c(F)ccc2cc(O)cc(-c3ncc4c(N5CC6CCC(C5)N6)nc(OCC5(CN6CCC7(CC6)CC(N6CCC(c8cc9c(cc8F)c(N8CCC(=O)NC8=O)nn9C)CC6)C7)CC5)nc4c3F)c12 as the molecule, how does the Activity [1] read?
Answer: 92%

Question: And the Emax [2]?
Answer: 89%

Question: And the Activity (PK-59)?
Answer: Active

Question: And the IC50 [3]?
Answer: 2.5 nM

Question: And the Activity [4]?
Answer: inactive

Question: And the Activity [5]?
Answer: inactive

Question: And the “Ratio IC50” value (ASPC1)?
Answer: >10

Question: What about the Activity (PSN1) of the same molecule?
Answer: Weak_effect; Compound Showed Weaker Potency In Antiproliferative Activity Compared To Mrtx1133

Question: And the Activity (HPAC)?
Answer: Active; Compound Showed Stronger Antiproliferative Activity Compared To Mrtx1133

Question: What about the Activity [6] of the same molecule?
Answer: inactive

Question: What about the inhibition in vivo at 0.1 mg/kg [7] of the same molecule?
Answer: 81.4%

Question: And the inhibition in vivo at 3 mg/kg [8]?
Answer: 42.9%

Question: And the inhibition in vivo at 3 mg/kg [9]?
Answer: 96.9%

Question: And the inhibition in vivo at 10 mg/kg [10]?
Answer: 94.7%

Question: And the Activity [11]?
Answer: Non-toxic

Question: And the Activity (SNU-407)?
Answer: Weak_effect

Question: And the Activity [12]?
Answer: >30%

Question: And the Activity [13]?
Answer: 6.1%

Question: And the Activity [14]?
Answer: Active

Question: What about the Activity [15] of the same molecule?
Answer: Active

Question: And the concentration at 168 h [16]?
Answer: 719 ng/g

Question: What about the half-life at 1 µM [17] of the same molecule?
Answer: 8.88 h

Question: What about the half-life at 1 µM [18] of the same molecule?
Answer: 7.22 h

Question: What about the half-life at 1 µM [19] of the same molecule?
Answer: 2.57 h

Question: What about the CLint scaled at 1 µM [20] of the same molecule?
Answer: 12.7 mL/min/kg

Question: What about the CLint scaled at 1 µM [21] of the same molecule?
Answer: 8.1 mL/min/kg

Question: What about the half-life at 100 µM [22] of the same molecule?
Answer: 7.27 h

Question: And the AUC(0-t) at 24 h [23]?
Answer: 0.458 µM·h

Question: What about the Vd [24] of the same molecule?
Answer: 16 L/kg

Question: And the Vd [25]?
Answer: 12.7 L/kg

Question: What about the half-life [26] of the same molecule?
Answer: 15.1 h

— ChEMBL document CHEMBL6177994 (J Med Chem, 2025)
